Several values for one entry are separate records, joined by “and”; a condition that tells them apart may be missing. Equal values may be shown once.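 48-hour exposure; five concentrations; linearly interpolated endpoints. GI50 is the concentration that inhibits growth by half. At the TGI there is no net growth.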
Columns and labels:
Assay in all cases: NCI-60 cell line screen, 48 h
U251 CNS = test system: U251 CNS
786-0 renal = test system: 786-0 renal
IGROV1 ovarian = test system: IGROV1 ovarian
MDA-MB-231 breast = test system: MDA-MB-231 breast
TK-10 renal = test system: TK-10 renal
MDA-MB-435 = test system: MDA-MB-435
NCI/ADR-RES ovarian = test system: NCI/ADR-RES ovarian
MALME-3M melanoma = test system: MALME-3M melanoma
BT-549 breast = test system: BT-549 breast
SF-268 CNS = test system: SF-268 CNS

SMILES	GI50 (U251 CNS)	TGI (U251 CNS)	GI50 (786-0 renal)	TGI (786-0 renal)	GI50 (IGROV1 ovarian)	TGI (IGROV1 ovarian)	GI50 (MDA-MB-231 breast)	TGI (MDA-MB-231 breast)	GI50 (TK-10 renal)	TGI (TK-10 renal)	GI50 (MDA-MB-435)	TGI (MDA-MB-435)	GI50 (NCI/ADR-RES ovarian)	TGI (NCI/ADR-RES ovarian)	GI50 (MALME-3M melanoma)	TGI (MALME-3M melanoma)	GI50 (BT-549 breast)	TGI (BT-549 breast)	GI50 (SF-268 CNS)	TGI (SF-268 CNS)
O=C(/C(Br)=C/c1ccccc1)c1ccccc1	1.83 µM	4.4 µM	1.9 µM	3.48 µM	1.66 µM	4.68 µM	2.44 µM	5.12 µM	3.38 µM	14.6 µM	1.96 µM	4.67 µM	2.24 µM	6.48 µM	1.75 µM	3.9 µM	2.08 µM	4.6 µM	4.56 µM	16.7 µM
COc1cc(C2=NOC(c3cc(OC)c(OC)c(OC)c3)C2)ccc1OCCCCOc1cc2c(cc1OC)C(=O)N1CCC[C@H]1C=N2 (stereo not given in full)	0.315 µM	1.1 µM	0.282 µM	0.913 µM	0.243 µM	0.537 µM	0.235 µM	0.75 µM	0.273 µM	0.704 µM	0.179 µM	0.371 µM	2.82 µM	9.35 µM	0.197 µM	0.364 µM	0.156 µM	0.385 µM	0.4 µM	5.68 µM
CC(C)(C)OC(=O)N1CCc2c(sc3ncnc(N/N=C/c4cccc5ccccc45)c23)C1	4.25 µM	> 100 µM	4.83 µM	> 100 µM	3.94 µM	> 100 µM	5.93 µM	> 100 µM	5.89 µM	> 100 µM	2.47 µM	7.31 µM	3.74 µM	43.8 µM	3.97 µM	36.3 µM	8.45 µM	72.9 µM	4.59 µM	> 100 µM
CC(=O)OCCN1c2ccccc2Sc2cnccc21	–	> 10 µM	–	> 10 µM	–	> 10 µM	–	> 10 µM	–	> 10 µM	–	> 10 µM	–	> 10 µM	–	> 10 µM	–	> 10 µM	–	> 10 µM
COc1cc2c(c(O)c1Br)C(=O)c1c(O)cc(C[C@H](C)O)cc1[C@H]2[C@H]1c2cc(C[C@H](C)O)cc(O)c2C(=O)c2c1cc(OC)c(Br)c2O	2.97 µM and 5.25 µM	23.1 µM and 39.2 µM	23 µM and 14.1 µM	67.5 µM and > 100 µM	2.98 µM and 5.45 µM	46.7 µM and 28.2 µM	3.76 µM and 14.1 µM	21.7 µM and 34.8 µM	13.8 µM and 31.4 µM	67.5 µM and > 100 µM	5.76 µM and 13.4 µM	36.1 µM and 37.6 µM	17.5 µM and 28.5 µM	59.9 µM and > 100 µM	6.65 µM and 12.8 µM	17 µM and 26.1 µM	10.9 µM and 7.55 µM	63.5 µM and 45.2 µM	12.3 µM and 31.2 µM	67.5 µM and > 100 µM
CC[C@@H]1CN(C)[C@H]2Cc3c([nH]c4ccccc34)C(=O)C[C@H]1C2C(=O)OC (stereo not given in full)	–	> 100 µM	–	> 100 µM	–	> 100 µM	–	> 100 µM	–	> 100 µM	–	> 100 µM	–	> 100 µM	–	> 100 µM	–	> 100 µM	–	> 100 µM
C=C1C(=O)O[C@H]2[C@H]1CC/C(COC(=O)c1ccc3ccccc3c1)=C\CC[C@@]1(C)O[C@@H]21	1.21 µM	2.5 µM	1.18 µM	2.65 µM	0.703 µM	2.19 µM	1.35 µM	3 µM	1.52 µM	2.85 µM	1.1 µM	2.45 µM	2.32 µM	10.2 µM	1.74 µM	3.47 µM	0.57 µM	2.03 µM	1.28 µM	2.75 µM
CC(C)c1nc(CN(C)C(=O)N[C@H](C(=O)N[C@@H](Cc2ccccc2)C[C@H](O)[C@H](Cc2ccccc2)NC(=O)OCc2cncs2)C(C)C)cs1	24.3 µM	71.2 µM	24.7 µM	53.5 µM	36.4 µM	> 100 µM	18 µM	35.1 µM	36.6 µM	> 92.6 µM	20.1 µM	57.4 µM	37.9 µM	> 100 µM	22.1 µM	> 57 µM	8.71 µM	> 76.5 µM	20.3 µM	66.7 µM
COc1ccc(-c2cc(=O)c3c(OC)c(OC)c(OC)cc3o2)cc1	–	> 100 µM	–	> 100 µM	–	> 100 µM	–	> 100 µM	–	> 100 µM	–	> 100 µM	–	> 100 µM	–	> 100 µM	–	> 100 µM	–	> 100 µM
N#CSc1c[nH]c2cccc(/C=C/C(=O)/C=C(/C=C/c3cccc4[nH]cc(SC#N)c34)OB(F)F)c12	0.366 µM	4.25 µM	0.344 µM	2.06 µM	0.448 µM	4.36 µM	0.442 µM	1.57 µM	0.961 µM	5.94 µM	0.27 µM	0.869 µM	4.3 µM	> 100 µM	0.272 µM	0.824 µM	1.26 µM	3.86 µM	1.07 µM	6.44 µM
O=C1Nc2c(C(F)(F)F)cccc2[C@]1(c1ccc(O)cc1)c1ccc(OC(F)(F)F)cc1	11.1 µM	24.6 µM	13.2 µM	28.1 µM	9.42 µM	23.4 µM	13 µM	26.2 µM	11.5 µM	25.3 µM	13.6 µM	26.6 µM	8.78 µM	25.8 µM	13 µM	26.6 µM	2.18 µM	8.43 µM	8.73 µM	24 µM
COc1ccc(/C=C/c2nccc3ccccc23)cc1OC	–	> 10 µM	–	> 10 µM	–	> 10 µM	–	> 10 µM	–	> 10 µM	–	> 10 µM	–	> 10 µM	–	> 10 µM	–	> 10 µM	–	> 10 µM
NC(=O)c1ccc(I)c(N)c1	> 100 µM	> 100 µM	> 100 µM	> 100 µM	> 100 µM	> 100 µM	> 100 µM	> 100 µM	> 100 µM	> 100 µM	> 100 µM	> 100 µM	> 100 µM	> 100 µM	> 100 µM	> 100 µM	> 100 µM	> 100 µM	> 100 µM	> 100 µM
C[C@@H]1OC(O)[C@@H](F)[C@H](O)[C@@H]1O (stereo not given in full)	> 100 µM	> 100 µM	> 100 µM	> 100 µM	> 100 µM	> 100 µM	> 100 µM	> 100 µM	> 100 µM	> 100 µM	> 100 µM	> 100 µM	> 100 µM	> 100 µM	> 100 µM	> 100 µM	> 100 µM	> 100 µM	> 100 µM	> 100 µM
CCN(CC)c1ccc(/C=C/c2ccc3cc(C)ccc3[n+]2CC)cc1	0.0441 µM	14.5 µM	0.295 µM	6.46 µM	0.201 µM	18.1 µM	0.215 µM	2.16 µM	0.146 µM	11.8 µM	0.113 µM	1.28 µM	5.69 µM	47.4 µM	0.149 µM	1.33 µM	0.0314 µM	1.39 µM	0.406 µM	16.5 µM
C=CC(=O)N1CC2(CCN(c3nc(OC4CCN(CCCOC)CC4)nc4c(OCC(F)(F)F)c(-c5c(C)ccc6[nH]ncc56)c(C5CC5)cc34)CC2)C1	2.81 µM	10 µM	4.4 µM	18.2 µM	6.88 µM	21.3 µM	1.98 µM	3.94 µM	3.73 µM	14.3 µM	1.85 µM	4 µM	14.8 µM	36.6 µM	1.66 µM	3.14 µM	2.26 µM	5.71 µM	3.75 µM	13.6 µM
COC1/C=C\C=C(/C)C(=O)NC2=CC(=O)C(=O)C(=C2O)CC(C)CC(OC)C(O)C(C)/C=C(\C)C1OC(N)=O (stereo not given)	–	> 40.3 µM	–	24.3 µM	–	> 100 µM	–	4.22 µM	–	> 57.5 µM	–	11.8 µM	–	> 100 µM	–	21.7 µM	–	> 100 µM	–	> 58.9 µM
CN1CCN(C)C12C=c1ccccc1=CC21CC1	–	> 82 µM	–	> 100 µM	–	> 100 µM	–	> 100 µM	–	> 100 µM	–	48.3 µM	–	> 100 µM	–	59 µM	–	> 100 µM	–	> 77 µM
Cn1c2ccccc2c2c(-c3ccccc3)[n+]3ccncc3nc21	47.4 µM	> 100 µM	> 100 µM	> 100 µM	70.8 µM	> 100 µM	> 100 µM	> 100 µM	> 100 µM	> 100 µM	94.3 µM	> 100 µM	> 100 µM	> 100 µM	93.8 µM	> 100 µM	29.6 µM	> 100 µM	51.3 µM	> 100 µM
CN1CCN(C(=O)OCc2nc3c(N4CCOCC4)nc(Cl)nc3n2C)CC1	1.52 µM	3.39 µM	1.56 µM	3 µM	1.24 µM	2.57 µM	0.566 µM	2.22 µM	1.59 µM	3.05 µM	1.16 µM	2.44 µM	2.46 µM	9.59 µM	1.5 µM	2.87 µM	1.09 µM	2.44 µM	1.59 µM	3.72 µM
